# Laboratory results from patent publication US20100279863A1, “HERBICIDAL COMPOUNDS BASED ON N-AZINYL-N'-PYRIDYLSULFONYLUREAS” (Bayer CropScience AG, priority 2009, published 2010).
# Tests used:
# Assay type in all cases: in vivo
# [1] = system: Italian rye grass (Lolium multiflorum); experiment: Pre-emergence herbicidal activity, LOLMU; settings: 80 g/ha, scored visually after approximately 3 weeks, 100% = plants have died
# Text: (§1) Seeds of monocotyledonous or dicotyledonous weed plants or crop plants are placed in sandy loam in wood fiber pots and covered with soil. The compounds according to the invention, which are formulated as wettable powders (WP) are then applied to the surface of the soil cover in the form of an aqueous suspension or emulsion with a water application rate of 600 I/ha (converted), with addition of 0.2% wetter. After the treatment, the pots are placed in the greenhouse and maintained under good growth conditions for the test plants. After approximately 3 weeks, the activity of the preparation is scored visually in comparison with untreated controls (herbicidal activity in percent (%): 100% activity=plants have died, 0% activity=like control plants). In the table, the individual crops are abbreviated as follows: • ALOMY: Slender meadow foxtail (Alopecurus myosuroides) • AMARE: Redroot pigweed (Amaranthus retroflexus) • CHEAL: Lambs quarters (Chenopodium album) • DIGSA: Hairy crab grass (Digitaria sanguinalis) • ECHCG: Barnyard grass (Echinochloa crus-galls) • LOLMU: Italian rye grass (Lolium multiflorum) • MATIN: Scentless camomile (Matricaria inodora) • PHBPU: Purple morning glory (Pharbitis/Ipomoea purpurea) • SETVI: Green bristlegrass (Setaria viridis) • SINAL: White mustard (Sinapis alba) • STEME: Chickweed (Stellaria media) • VIOTR: Wild pansy (Viola tricolor)
# [2] = system: Rough cocklebear (Xanthium strumarium); experiment: Post-emergence herbicidal activity, XANST; settings: one-leaf stage, 80 g/ha, scored visually after approximately 3 weeks, 100% = plants have died
# Protocol: (§2) Seeds of monocotyledonous or dicotyledonous weed plants or crop plants are placed in sandy loam in wood fiber pots, covered with soil and grown in the greenhouse under good growth conditions. 2 to 3 weeks after sowing, the test plants are treated in the one-leaf stage. The compounds according to the invention, which are formulated as wettable powders (WP), are then sprayed onto the green plant parts in the form of an aqueous suspension or emulsion with a water application rate of 600 l/ha (converted) with addition of 0.2% of wetter. After the test plants have been left to stand in the greenhouse for approximately 3 weeks under optimal growth conditions, the activity of the preparation is scored visually in comparison with untreated controls (herbicidal activity in percent (%): 100% activity=plants have died, 0% activity=like control plants). In the table, the individual crops are abbreviated as follows: • ABUTH: Velvetleaf (Abutilon theophrasti) • ALOMY: Slender meadow foxtail (Alopecurus myosuroides) • AMARE: Redroot pigweed (Amaranthus retroflexus) • CHEAL: Lambs quarters (Chenopodium album) • ECHCG: Barnyard grass (Echinochloa crus-galls) • LOLMU: Italian rye grass (Lolium multiflorum) • MATIN: Scentless camomile (Matricaria inodora) • PHBPU: Purple morning glory (Pharbitis/Ipomoea purpurea) • POLCO: Black bindweed (Polygonum convolvulus) • SETVI: Green bristlegrass (Setaria viridis) • STEME: Chickweed (Stellaria media) • VIOTR: Wild pansy (Viola tricolor) • XANST: Rough cocklebear (Xanthium strumarium)
# [3] = system: Purple morning glory (Pharbitis/Ipomoea purpurea); experiment: Pre-emergence herbicidal activity, PHBPU; settings: 80 g/ha, scored visually after approximately 3 weeks, 100% = plants have died
# Text: as §1
# [4] = system: Green bristlegrass (Setaria viridis); experiment: Post-emergence herbicidal activity, SETVI; settings: one-leaf stage, 80 g/ha, scored visually after approximately 3 weeks, 100% = plants have died
# Protocol: as §2
# [5] = system: Barnyard grass (Echinochloa crus-galls); experiment: Pre-emergence herbicidal activity, ECHCG; settings: 80 g/ha, scored visually after approximately 3 weeks, 100% = plants have died
# Text: as §1
# [6] = system: White mustard (Sinapis alba); experiment: Pre-emergence herbicidal activity, SINAL; settings: 80 g/ha, scored visually after approximately 3 weeks, 100% = plants have died
# Text: as §1
# [7] = system: Purple morning glory (Pharbitis/Ipomoea purpurea); experiment: Post-emergence herbicidal activity, PHBPU; settings: one-leaf stage, 80 g/ha, scored visually after approximately 3 weeks, 100% = plants have died
# Protocol: as §2
# [8] = system: Chickweed (Stellaria media); experiment: Pre-emergence herbicidal activity, STEME; settings: 80 g/ha, scored visually after approximately 3 weeks, 100% = plants have died
# Text: as §1
# [9] = system: Slender meadow foxtail (Alopecurus myosuroides); experiment: Post-emergence herbicidal activity, ALOMY; settings: one-leaf stage, 80 g/ha, scored visually after approximately 3 weeks, 100% = plants have died
# Protocol: as §2
# [10] = system: Velvetleaf (Abutilon theophrasti); experiment: Post-emergence herbicidal activity, ABUTH; settings: one-leaf stage, 80 g/ha, scored visually after approximately 3 weeks, 100% = plants have died
# Protocol: as §2
# [11] = system: Lambs quarters (Chenopodium album); experiment: Post-emergence herbicidal activity, CHEAL; settings: one-leaf stage, 80 g/ha, scored visually after approximately 3 weeks, 100% = plants have died
# Protocol: as §2
# [12] = system: Wild pansy (Viola tricolor); experiment: Pre-emergence herbicidal activity, VIOTR; settings: 80 g/ha, scored visually after approximately 3 weeks, 100% = plants have died
# Text: as §1
# [13] = system: Redroot pigweed (Amaranthus retroflexus); experiment: Post-emergence herbicidal activity, AMARE; settings: one-leaf stage, 80 g/ha, scored visually after approximately 3 weeks, 100% = plants have died
# Protocol: as §2
# [14] = system: Wild pansy (Viola tricolor); experiment: Post-emergence herbicidal activity, VIOTR; settings: one-leaf stage, 80 g/ha, scored visually after approximately 3 weeks, 100% = plants have died
# Protocol: as §2
# [15] = system: Scentless camomile (Matricaria inodora); experiment: Pre-emergence herbicidal activity, MATIN; settings: 80 g/ha, scored visually after approximately 3 weeks, 100% = plants have died
# Text: as §1
# [16] = system: Green bristlegrass (Setaria viridis); experiment: Pre-emergence herbicidal activity, SETVI; settings: 80 g/ha, scored visually after approximately 3 weeks, 100% = plants have died
# Text: as §1
# [17] = system: Italian rye grass (Lolium multiflorum); experiment: Post-emergence herbicidal activity, LOLMU; settings: one-leaf stage, 80 g/ha, scored visually after approximately 3 weeks, 100% = plants have died
# Protocol: as §2
# [18] = system: Scentless camomile (Matricaria inodora); experiment: Post-emergence herbicidal activity, MATIN; settings: one-leaf stage, 80 g/ha, scored visually after approximately 3 weeks, 100% = plants have died
# Protocol: as §2
# [19] = system: Barnyard grass (Echinochloa crus-galls); experiment: Post-emergence herbicidal activity, ECHCG; settings: one-leaf stage, 80 g/ha, scored visually after approximately 3 weeks, 100% = plants have died
# Protocol: as §2
# [20] = system: Lambs quarters (Chenopodium album); experiment: Pre-emergence herbicidal activity, CHEAL; settings: 80 g/ha, scored visually after approximately 3 weeks, 100% = plants have died
# Text: as §1
# [21] = system: Slender meadow foxtail (Alopecurus myosuroides); experiment: Pre-emergence herbicidal activity, ALOMY; settings: 80 g/ha, scored visually after approximately 3 weeks, 100% = plants have died
# Text: as §1
# [22] = system: Chickweed (Stellaria media); experiment: Post-emergence herbicidal activity, STEME; settings: one-leaf stage, 80 g/ha, scored visually after approximately 3 weeks, 100% = plants have died
# Protocol: as §2
# [23] = system: Black bindweed (Polygonum convolvulus); experiment: Post-emergence herbicidal activity, POLCO; settings: one-leaf stage, 80 g/ha, scored visually after approximately 3 weeks, 100% = plants have died
# Protocol: as §2
# [24] = system: Redroot pigweed (Amaranthus retroflexus); experiment: Pre-emergence herbicidal activity, AMARE; settings: 80 g/ha, scored visually after approximately 3 weeks, 100% = plants have died
# Text: as §1
# [25] = system: Hairy crab grass (Digitaria sanguinalis); experiment: Pre-emergence herbicidal activity, DIGSA; settings: 80 g/ha, scored visually after approximately 3 weeks, 100% = plants have died
# Text: as §1
Structure (SMILES),"herbicidal activity in percent, LOLMU [1]","herbicidal activity in percent, XANST [2]","herbicidal activity in percent, SETVI [4]","herbicidal activity in percent, ECHCG [5]","herbicidal activity in percent, PHBPU [7]","herbicidal activity in percent, STEME [8]","herbicidal activity in percent, ALOMY [9]","herbicidal activity in percent, ABUTH [10]","herbicidal activity in percent, CHEAL [11]","herbicidal activity in percent, VIOTR [12]","herbicidal activity in percent, AMARE [13]","herbicidal activity in percent, VIOTR [14]","herbicidal activity in percent, SETVI [16]","herbicidal activity in percent, LOLMU [17]","herbicidal activity in percent, MATIN [18]","herbicidal activity in percent, ECHCG [19]","herbicidal activity in percent, ALOMY [21]","herbicidal activity in percent, STEME [22]","herbicidal activity in percent, POLCO [23]","herbicidal activity in percent, AMARE [24]",other results
Cc1cc(C)nc(NC(=O)NS(=O)(=O)c2cnccc2C2=NOCCO2)n1 [Ia-3],85%,90%,80%,80%,100%,80%,90%,90%,80%,80%,95%,80%,90%,85%,100%,95%,90%,85%,80%,85%,"herbicidal activity in percent, PHBPU [3]: 90%; herbicidal activity in percent, SINAL [6]: 90%; herbicidal activity in percent, MATIN [15]: 90%; herbicidal activity in percent, CHEAL [20]: 90%"
CN(C)c1nc(NC(=O)NS(=O)(=O)c2cnccc2C2=NOCCO2)nc(OCC(F)(F)F)n1 [Ia-8],–,–,–,–,–,–,–,–,–,–,80%,–,–,80%,–,80%,–,80%,–,–,–
"COc1cc(OC)nc(NC(=O)NS(=O)(=O)c2cnccc2C2=NOCCO2)n1 [Ia-2, 4-(5,6-Dihydro-1,4,2-dioxazin-3-yl)-N-[(4,6-dimethoxypyrimidin-2-yl)carbamoyl]pyridine-3-sulfonamide]",90%,100%,95%,90%,90%,90%,90%,90%,80%,90%,100%,90%,100%,95%,90%,90%,90%,95%,90%,90%,"herbicidal activity in percent, PHBPU [3]: 80%; herbicidal activity in percent, SINAL [6]: 100%; herbicidal activity in percent, MATIN [15]: 90%; herbicidal activity in percent, CHEAL [20]: 100%; herbicidal activity in percent, DIGSA [25]: 80%"
COc1cc(C)nc(NC(=O)NS(=O)(=O)c2cnccc2C2=NOCCO2)n1 [Ia-9],90%,100%,80%,80%,100%,90%,90%,90%,90%,90%,100%,90%,90%,90%,100%,90%,90%,90%,90%,90%,"herbicidal activity in percent, PHBPU [3]: 90%; herbicidal activity in percent, MATIN [15]: 90%; herbicidal activity in percent, CHEAL [20]: 90%; herbicidal activity in percent, DIGSA [25]: 90%"
COc1cc(OC)nc(NC(=O)NS(=O)(=O)c2cccnc2C2=NOCCO2)n1 [Ic-1],85%,90%,85%,90%,90%,90%,80%,80%,80%,80%,95%,90%,85%,85%,90%,90%,90%,90%,90%,90%,"herbicidal activity in percent, SINAL [6]: 90%; herbicidal activity in percent, DIGSA [25]: 80%"
